Assay results: publication PMC12337082 (Journal of Biochemical and Molecular Toxicology, 2025)

Experiments:
SSC‐9 skin cancer = test system: SSC‐9 skin cancer; design: method as in Abo Aasy et al. (2019) [62]; settings: 24 h, ref Abo Aasy et al. (2019) [62]; cited from earlier work
Leukemia = test system: Leukemia; design: method as in Nakamura et al. (2004) [60]; settings: 72 h, ref Nakamura et al. (2004) [60]; cited from earlier work
MDA‐MB‐231 [1] = assay: Annexin V/PI staining, Tali image‐based cytometry, MDA‐MB‐231; assay type: cell-based, human; settings: MDA‐MB‐231, 24 h
Excerpt: (§1) To assess apoptosis and cell death, cells were stained with Annexin V‐PI dyes (Tali Apoptosis Kit‐Annexin V Alexa Fluor 488 and PI‐, Molecular Probes A10788, Invitrogen) and quantified using Tali Image‐Based Cytometer (Invitrogen) and fluorescence microscopy (Olympus CKX41 Inverted Phase Contrast Fluorescence Microscope furbished with reflected fluorescence illuminator CKX‐RFA).
(§2) To assess whether our compounds produce their cytotoxic effects through induction of apoptosis, apoptosis was investigated using Annexin V/PI labeling and MMP methods (Figures 4A−C). In addition, by utilizing TALI image‐based cytometry and fluorescent microscopy, the number of cells was analyzed for different concentrations of agents (Table 4).

PGE2 release [2] = assay: PGE2 ELISA, MCF‐7; assay type: cell-based, human; settings: MCF‐7, 0.5 mM, 24 h
Protocol: (§3) PGE2 ELISA kit (ENZO, ADI‐900‐001) was used to determine prostaglandin synthesis levels. MCF‐7 and MDA‐MB‐231 breast cancer cells were cultured at a density of 1 × 10^6 cells/well in a 6‐well culture dish. […] Following 24 h of incubation, the medium was replaced with a fresh one, 10 µM arachidonic acid was added, and it was further incubated for 1 h. The PGE2 levels were determined according to the kit protocol.

[3] = test system: MCF‐7, MDA‐MB‐231, and L‐929 cells; assay: Mitochondrial membrane potential (JC‐1) apoptosis assay, statements over all cell lines; assay type: cell-based; settings: MMP assay, similar levels for all cells including L‐929
Protocol: Apoptosis was also investigated by evaluating mitochondrial membrane potential changes (MMP assay). MCF‐7, MDA‐MB‐231, and L‐929 cells were stained with JC‐1 dye according to the manufacturer's protocols (JC‐1 MMP Assay Kit, KA1324, Abnova). The apoptotic to healthy cell ratio was calculated using absorbances collected from two different fluorescence channels (535/595 for healthy cells, 485/535 for apoptotic cells) (Synergy H1, Biotech Instruments Inc., Vermont, USA).

[4] = test system: L‐929 mouse fibroblast cell line; assay: MTT cell viability assay, L‐929 control fibroblasts; assay type: cell-based; settings: Mus musculus
Excerpt: (§4) MCF‐7, MDA‐MB‐231, and L‐929 mouse fibroblast cell lines were obtained from the American Type Culture Collection (ATCC, Manassas, Virginia, USA). MCF‐7 is a hormone‐responsive, differentiated mammary epithelium cell line with an ER+, PR+, and HER2‐ pattern (ATCC, HTB‐22). MDA‐MB‐231 is a triple‐negative differentiated mammary epithelium cell line (ATCC, HTB‐26). The L‐929 mouse fibroblast cell line is derived from the normal subcutaneous connective tissue of a mouse and is commonly used in cytotoxicity assays (ATCC, CCL‐1). All cell lines were cultured in DMEM medium (Dulbecco's Modified Eagle Medium, Gibco), supplemented with 10% fetal bovine serum (Gibco), 1% glutamine, and penicillin/streptomycin (Gibco) in a humidified atmosphere containing 5% CO2 at 37°C. Cell viability was tested using Trypan blue staining.
(§5) The MTT [3‐(4,5‐dimethylthiazol‐2‐yl)−2,5‐diphenyltetrazolium bromide] assay is a colorimetric assay for determining cell metabolic activity. In the MTT assay, the yellow dye MTT that dissolves in water is changed by mitochondrial reductase into a purple formazan that is non‐soluble. The water‐insoluble formazan produced is solubilized in a solubilization buffer, and absorbances are detected.
(§6) In 96‐well plates, the cells were cultivated at a density of 5 × 10^3 cells/well using 100 µL medium. […] 10 μL of the MTT labeling reagent (final concentration 0.5 mg/mL) were added to each well at the end of the incubation periods, and the wells were incubated for an additional 4 h. Next, each well received 100 μL of solubilization buffer (10% SDS in 0.01 M HCl) and was overnight incubated, and the absorbance of formazan products was evaluated at 550 nm using a multi‐mode microplate reader (Synergy H1, Biotech Instruments Inc., Vermont, USA). The results were normalized relative to the absorbances of calculated percent concentrations of DMSO. All tests involved three replicates with three independent experiments.
(§7) All statistical evaluations, including t‐tests and IC50 values, were calculated using the GraphPad Prism software tool (v6.0, GraphPad Software Inc., San Diego, USA). Statistical significance was defined as p ˂ 0.05 (*p < 0.05, **p < 0.01, ***p < 0.001, ****p < 0.0001).

MCF‐7 [5] = assay: Annexin V/PI staining, Tali image‐based cytometry, MCF‐7; assay type: cell-based, human; settings: MCF‐7, 24 h
Excerpt: as §1, §2

MDA‐MB‐231 [6] = assay: MTT cell viability assay, MDA‐MB‐231; assay type: cell-based, human; settings: Homo sapiens, MTT
Excerpt: as §4, §5, §6, §7

MCF‐7 [7] = assay: MTT cell viability assay, MCF‐7; assay type: cell-based, human; settings: Homo sapiens, MCF7, MTT
Excerpt: as §4, §5, §6, §7

PGE2 release [8] = assay: PGE2 ELISA, MDA‐MB‐231; assay type: cell-based, human; settings: MDA‐MB‐231, 0.5 mM, 24 h
Protocol: as §3

[9] = test system: MCF‐7, MDA‐MB‐231, and L‐929; assay: MTT cell viability assay, statements over all cell lines; assay type: cell-based
Excerpt: as §4, §5, §6
All statistical evaluations, including t‐tests and IC50 values, were calculated using the GraphPad Prism software tool (v6.0, GraphPad Software Inc., San Diego, USA). […]

In the case of `CCc1cccc2c3c([nH]c12)C(CC)(CC(=O)O)OCC3` (stereo not shown) [Etodolac, 2‐(1,8‐diethyl‐1,3,4‐tetrahydropyrano [3,4‐b]indol‐1‐yl) acetic acid, reference compound], the IC50 (SSC‐9 skin cancer) is listed as 983 µM, the IC50 (Leukemia) is listed as 50 to 100 µM and the Apoptotic cells (MDA‐MB‐231 [1]; 100 µM) is listed as 1%. The Dead cells (MDA‐MB‐231 [1]; 100 µM) was 4%, the Live cells (MDA‐MB‐231 [1]; 100 µM) was 95% and the Apoptotic cells (MDA‐MB‐231 [1]; 250 µM) was 1%. For the same molecule, the Dead cells (MDA‐MB‐231 [1]; 250 µM) was 5%, the Live cells (MDA‐MB‐231 [1]; 250 µM) was 94% and the Apoptotic cells (MDA‐MB‐231 [1]; 500 µM) was 6%. For the same molecule, the Dead cells (MDA‐MB‐231 [1]; 500 µM) was 10%, the Live cells (MDA‐MB‐231 [1]; 500 µM) was 84% and the Apoptotic cells (MDA‐MB‐231 [1]; 1000 µM) was 11%. The Dead cells (MDA‐MB‐231 [1]; 1000 µM) was 13%, the Live cells (MDA‐MB‐231 [1]; 1000 µM) was 76% and the “Inhibition of PGE2 release” value (PGE2 release [2]) was 57%. For the same molecule, the “Concentration after which apoptotic increases became detectable” value [3] was 0.5−1.0 mM, the IC50 ([4]; L929, 24 h, L‐929, 24 h) was 735 ± 3.7 µM and the IC50 ([4]; L929, 48 h, L‐929, 48 h) was 751 ± 9.5 µM. The IC50 ([4]; L929, 72 h, L‐929, 72 h) was 622 ± 4.7 µM, the Apoptotic cells (MCF‐7 [5]; 100 µM) was 1% and the Dead cells (MCF‐7 [5]; 100 µM) was 5%. It also gave a Live cells (MCF‐7 [5]; 100 µM) of 94%, an Apoptotic cells (MCF‐7 [5]; 250 µM) of 2% and a Dead cells (MCF‐7 [5]; 250 µM) of 6%. The Live cells (MCF‐7 [5]; 250 µM) was 92%, the Apoptotic cells (MCF‐7 [5]; 500 µM) was 7% and the Dead cells (MCF‐7 [5]; 500 µM) was 9%. For the same molecule, the Live cells (MCF‐7 [5]; 500 µM) was 84%, the Apoptotic cells (MCF‐7 [5]; 1000 µM) was 5% and the Dead cells (MCF‐7 [5]; 1000 µM) was 8%. It also gave a Live cells (MCF‐7 [5]; 1000 µM) of 87%, an IC50 (MDA‐MB‐231 [6]; MDA-MB-231, 24 h, MDA‐MB‐231, 24 h) of 740 ± 1.65 µM and an IC50 (MDA‐MB‐231 [6]; MDA-MB-231, 48 h, MDA‐MB‐231, 48 h) of 699 ± 4.61 µM. The IC50 (MDA‐MB‐231 [6]; MDA-MB-231, 72 h, MDA‐MB‐231, 72 h) was 578 ± 3.65 µM, the IC50 (MCF‐7 [7]; MCF‐7, 24 h) was 750 ± 4.2 µM and the IC50 (MCF‐7 [7]; MCF‐7, 48 h) was 731 ± 1.37 µM. The IC50 (MCF‐7 [7]; MCF‐7, 72 h) was 555 ± 2.42 µM, the “Inhibition of PGE2 release” value (PGE2 release [8]) was 38% and the “Concentration at which viability of the cells was reduced” value ([9]; all cell lines including healthy controls) was 0.2−0.5 mM. The IC50 ([9]; read-out: IC50 range) was 500 to 1000 µM.
